These are literature values, as cited in patent US20030134851A1, “Methods and compositions for providing glutamine” (priority 2001, published 2003).

For the data set the following is noted: rodents; cited from earlier work.

On to `O=C1CC[C@@H](C(=O)O)N1` [pyroglutamic acid], for which the Neurotoxicity entry is on record as “is a neurotoxin in rodents”.
